In ChEMBL document CHEMBL4308863, “Oxidative nucleophilic substitution selectively produces cambinol derivatives with antiproliferative activity on bladder cancer cell lines” (Bioorg Med Chem Lett, 2019):
Values belong to the compound of their own block, whether it stands above or below them. The source made the active and inactive calls. The rule behind the calls is not given here.

Experiments:
[1] = Cytotoxicity against human C3PV cells assessed as decrease in cell viability after 3 hrs by MTT assay; assay type: cell-based
[2] = Cytotoxicity against human C3PV cells assessed as decrease in cell viability after 24 hrs by MTT assay; assay type: cell-based
[3] = test system: EJ; assay: Antiproliferative activity against human MGHU1 cells expressing wild-type p53 assessed as decrease in cell viability after 24 hrs by MTT assay; assay type: functional, cell-based
[4] = test system: EJ; assay: Antiproliferative activity against human MGHU1 cells expressing wild-type p53 assessed as decrease in cell viability after 3 hrs by MTT assay; assay type: functional, cell-based
[5] = test system: RT-112; assay: Antiproliferative activity against human RT112 cells expressing p53 mutant assessed as decrease in cell viability after 3 hrs by MTT assay; assay type: functional, cell-based; conditions: RT-112, 3 h
[6] = test system: RT-112; assay: Antiproliferative activity against human RT112 cells expressing p53 mutant assessed as decrease in cell viability after 24 hrs by MTT assay; assay type: functional, cell-based; conditions: RT-112, 24 h
[7] = target: T1, NAD-dependent protein deacetylase sirtuin-1 (Homo sapiens) (UniProt Q96EB6); assay: Inhibition of SIRT1 (unknown origin) at 10 uM using acetylated peptide p53K382 as substrate preincubated for 15 mins followed by substrate addition and measured after 40 mins by fluorescence assay
T1 sequence (whole entry): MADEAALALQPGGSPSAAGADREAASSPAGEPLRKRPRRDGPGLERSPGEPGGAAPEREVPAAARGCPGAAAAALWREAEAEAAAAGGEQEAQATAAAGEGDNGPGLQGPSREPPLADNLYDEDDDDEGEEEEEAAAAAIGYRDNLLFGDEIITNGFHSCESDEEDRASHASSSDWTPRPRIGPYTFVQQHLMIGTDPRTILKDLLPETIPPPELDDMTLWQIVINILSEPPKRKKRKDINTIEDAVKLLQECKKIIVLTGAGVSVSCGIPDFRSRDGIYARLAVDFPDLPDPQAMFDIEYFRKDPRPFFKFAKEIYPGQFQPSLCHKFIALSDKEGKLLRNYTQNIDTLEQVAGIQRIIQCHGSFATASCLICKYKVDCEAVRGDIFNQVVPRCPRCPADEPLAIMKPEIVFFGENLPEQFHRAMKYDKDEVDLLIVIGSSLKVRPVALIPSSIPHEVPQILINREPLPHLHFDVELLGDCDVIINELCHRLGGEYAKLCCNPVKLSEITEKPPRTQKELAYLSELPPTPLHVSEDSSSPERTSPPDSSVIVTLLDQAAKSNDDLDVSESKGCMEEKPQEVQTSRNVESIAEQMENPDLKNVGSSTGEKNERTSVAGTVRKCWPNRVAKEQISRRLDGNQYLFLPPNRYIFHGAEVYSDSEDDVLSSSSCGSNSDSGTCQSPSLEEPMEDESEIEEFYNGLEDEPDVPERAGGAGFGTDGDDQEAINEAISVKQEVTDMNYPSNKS

[8] = test system: EJ; assay: Inhibition of colony formation in human MGHU1 cells expressing wild-type p53 at […] uM after 3 to 24 hrs by crystal violet staining based assay; assay type: functional, cell-based
[9] = test system: RT-112; assay: Inhibition of colony formation in human RT112 cells expressing p53 mutant at 24.50 to 28.74 uM after 3 to 24 hrs by crystal violet staining based assay; assay type: functional, cell-based
[10] = target: T1, NAD-dependent protein deacetylase sirtuin-1 (Homo sapiens); assay: Inhibition of SIRT1 in human MGHU1 cells assessed as induction of p53 after 3 to 24 hrs by Western blot analysis; assay type: cell-based
[11] = target: T1, NAD-dependent protein deacetylase sirtuin-1 (Homo sapiens); assay: Inhibition of SIRT1 in human MGHU1 cells assessed as stabilization of p53 by measuring increase in p53 acetylation after 3 to 24 hrs by Western blot analysis; assay type: cell-based
[12] = test system: EJ; assay: Effect on acetylated-p53 expression in human MGHU1 cells after 3 to 24 hrs by Western blot analysis; assay type: functional, cell-based
[13] = test system: EJ; assay: Effect on acetylated-histone H3 expression in human MGHU1 cells after 3 to 24 hrs by Western blot analysis; assay type: functional, cell-based

inhibition [7]: inactive
Compound: C#CCNc1nc(-c2ccccc2)c(Cc2c(O)ccc3ccccc23)c(=O)[nH]1
IC50 [1]: > 300 µM
IC50 [2]: > 300 µM
IC50 [3]: 148 µM
IC50 [4]: 16.8 µM
IC50 [5]: 91.2 µM
IC50 [6]: 130 µM

inhibition [7]: inactive
Compound: CCN(CC)c1nc(-c2ccccc2)c(Cc2c(O)ccc3ccccc23)c(=O)[nH]1
IC50 [1]: > 300 µM
IC50 [2]: > 300 µM
IC50 [3]: 79.7 µM
IC50 [4]: 15.4 µM
IC50 [5]: 32.2 µM
IC50 [6]: 155 µM

inhibition [7]: inactive
Compound: O=c1[nH]c(NCCO)nc(-c2ccccc2)c1Cc1c(O)ccc2ccccc12
IC50 [1]: > 300 µM
IC50 [2]: > 300 µM
IC50 [3]: > 300 µM
IC50 [4]: 282 µM
IC50 [5]: 7.2 µM
IC50 [6]: 96.6 µM

inhibition [10]: inactive
inhibition [11]: inactive
inhibition [7]: inactive
Compound: CCCCNc1nc(-c2ccccc2)c(Cc2c(O)ccc3ccccc23)c(=O)[nH]1
IC50 [1]: 47.6 µM
IC50 [2]: > 300 µM
IC50 [3]: 28.7 µM
IC50 [4]: 24.5 µM
IC50 [5]: 1.9 µM
IC50 [6]: 1.6 µM
inhibition [8]: Active
inhibition [9]: Active
Activity [12]: inactive
Activity [13]: inactive

Second part, the compound before the results:

Compound: O=c1[nH]c(NCCc2ccc(O)cc2)nc(-c2ccccc2)c1Cc1c(O)ccc2ccccc12
IC50 [1]: 145 µM
IC50 [2]: > 300 µM
IC50 [3]: 82.1 µM
IC50 [4]: 22.1 µM
IC50 [5]: 48.9 µM
IC50 [6]: 106 µM
inhibition [7]: inactive

Compound: O=c1[nH]c(=S)[nH]c(-c2ccccc2)c1Cc1c(O)ccc2ccccc12 [CAMBINOL]
IC50 [1]: 39.9 µM
IC50 [2]: > 300 µM
IC50 [3]: 242 µM
IC50 [4]: 95.9 µM
IC50 [5]: 37.9 µM
IC50 [6]: 125 µM

Compound: O=c1[nH]c(Nc2ccc(O)cc2)nc(-c2ccccc2)c1Cc1c(O)ccc2ccccc12
IC50 [1]: > 300 µM
IC50 [2]: > 300 µM
IC50 [3]: 92.4 µM
IC50 [4]: 90.9 µM
IC50 [5]: > 300 µM
IC50 [6]: 265 µM
inhibition [7]: inactive

Compound: O=c1[nH]c(NCCc2ccc(O)c(O)c2)nc(-c2ccccc2)c1Cc1c(O)ccc2ccccc12
IC50 [1]: > 300 µM
IC50 [2]: > 300 µM
IC50 [3]: 71.7 µM
IC50 [4]: 12.6 µM
IC50 [5]: 35.9 µM
IC50 [6]: 79.3 µM
inhibition [7]: inactive

Compound: COc1ccc(Nc2nc(-c3ccccc3)c(Cc3c(O)ccc4ccccc34)c(=O)[nH]2)cc1
IC50 [1]: > 300 µM
IC50 [2]: > 300 µM
IC50 [3]: 63.7 µM
IC50 [4]: 160 µM
IC50 [5]: 18.5 µM
IC50 [6]: 138 µM
inhibition [7]: inactive
